Experimental data reported in the NIST ThermoML archive (doi:10.1021/je800920d).
Numbers after ± are expanded uncertainties.

Tests used:
[1] = Molar enthalpy of transition or fusion; settings: Crystal; DSC
[2] = Crystal; DTA

Molar enthalpy of transition or fusion [1]: 7.5 ± 0.215 kcal/mol | Normal melting temperature [2]: 154.6 ± 0.5 °C
SMILES: COc1ccc2cc([C@H](C)C(=O)O)ccc2c1 [(S)-(+)-naproxen]
